Experimental data as given in ChEMBL document CHEMBL3638030, “IC50 data for the L-type calcium channel extracted from a set of literature articles”.
pIC50: −log10 of the molar value.

What was measured:
[1] = biological target: T1, Voltage-dependent L-type calcium channel subunit alpha-1C (Rattus norvegicus, UniProt P22002); assay: Inhibition of Cav1.2 calcium current measured using whole cell patch clamp in rat Artery myocytes; format: functional, cell-based, Tail; design: ca sol conc 5 mM, temp 20-22 C
T1 sequence (P22002 whole entry): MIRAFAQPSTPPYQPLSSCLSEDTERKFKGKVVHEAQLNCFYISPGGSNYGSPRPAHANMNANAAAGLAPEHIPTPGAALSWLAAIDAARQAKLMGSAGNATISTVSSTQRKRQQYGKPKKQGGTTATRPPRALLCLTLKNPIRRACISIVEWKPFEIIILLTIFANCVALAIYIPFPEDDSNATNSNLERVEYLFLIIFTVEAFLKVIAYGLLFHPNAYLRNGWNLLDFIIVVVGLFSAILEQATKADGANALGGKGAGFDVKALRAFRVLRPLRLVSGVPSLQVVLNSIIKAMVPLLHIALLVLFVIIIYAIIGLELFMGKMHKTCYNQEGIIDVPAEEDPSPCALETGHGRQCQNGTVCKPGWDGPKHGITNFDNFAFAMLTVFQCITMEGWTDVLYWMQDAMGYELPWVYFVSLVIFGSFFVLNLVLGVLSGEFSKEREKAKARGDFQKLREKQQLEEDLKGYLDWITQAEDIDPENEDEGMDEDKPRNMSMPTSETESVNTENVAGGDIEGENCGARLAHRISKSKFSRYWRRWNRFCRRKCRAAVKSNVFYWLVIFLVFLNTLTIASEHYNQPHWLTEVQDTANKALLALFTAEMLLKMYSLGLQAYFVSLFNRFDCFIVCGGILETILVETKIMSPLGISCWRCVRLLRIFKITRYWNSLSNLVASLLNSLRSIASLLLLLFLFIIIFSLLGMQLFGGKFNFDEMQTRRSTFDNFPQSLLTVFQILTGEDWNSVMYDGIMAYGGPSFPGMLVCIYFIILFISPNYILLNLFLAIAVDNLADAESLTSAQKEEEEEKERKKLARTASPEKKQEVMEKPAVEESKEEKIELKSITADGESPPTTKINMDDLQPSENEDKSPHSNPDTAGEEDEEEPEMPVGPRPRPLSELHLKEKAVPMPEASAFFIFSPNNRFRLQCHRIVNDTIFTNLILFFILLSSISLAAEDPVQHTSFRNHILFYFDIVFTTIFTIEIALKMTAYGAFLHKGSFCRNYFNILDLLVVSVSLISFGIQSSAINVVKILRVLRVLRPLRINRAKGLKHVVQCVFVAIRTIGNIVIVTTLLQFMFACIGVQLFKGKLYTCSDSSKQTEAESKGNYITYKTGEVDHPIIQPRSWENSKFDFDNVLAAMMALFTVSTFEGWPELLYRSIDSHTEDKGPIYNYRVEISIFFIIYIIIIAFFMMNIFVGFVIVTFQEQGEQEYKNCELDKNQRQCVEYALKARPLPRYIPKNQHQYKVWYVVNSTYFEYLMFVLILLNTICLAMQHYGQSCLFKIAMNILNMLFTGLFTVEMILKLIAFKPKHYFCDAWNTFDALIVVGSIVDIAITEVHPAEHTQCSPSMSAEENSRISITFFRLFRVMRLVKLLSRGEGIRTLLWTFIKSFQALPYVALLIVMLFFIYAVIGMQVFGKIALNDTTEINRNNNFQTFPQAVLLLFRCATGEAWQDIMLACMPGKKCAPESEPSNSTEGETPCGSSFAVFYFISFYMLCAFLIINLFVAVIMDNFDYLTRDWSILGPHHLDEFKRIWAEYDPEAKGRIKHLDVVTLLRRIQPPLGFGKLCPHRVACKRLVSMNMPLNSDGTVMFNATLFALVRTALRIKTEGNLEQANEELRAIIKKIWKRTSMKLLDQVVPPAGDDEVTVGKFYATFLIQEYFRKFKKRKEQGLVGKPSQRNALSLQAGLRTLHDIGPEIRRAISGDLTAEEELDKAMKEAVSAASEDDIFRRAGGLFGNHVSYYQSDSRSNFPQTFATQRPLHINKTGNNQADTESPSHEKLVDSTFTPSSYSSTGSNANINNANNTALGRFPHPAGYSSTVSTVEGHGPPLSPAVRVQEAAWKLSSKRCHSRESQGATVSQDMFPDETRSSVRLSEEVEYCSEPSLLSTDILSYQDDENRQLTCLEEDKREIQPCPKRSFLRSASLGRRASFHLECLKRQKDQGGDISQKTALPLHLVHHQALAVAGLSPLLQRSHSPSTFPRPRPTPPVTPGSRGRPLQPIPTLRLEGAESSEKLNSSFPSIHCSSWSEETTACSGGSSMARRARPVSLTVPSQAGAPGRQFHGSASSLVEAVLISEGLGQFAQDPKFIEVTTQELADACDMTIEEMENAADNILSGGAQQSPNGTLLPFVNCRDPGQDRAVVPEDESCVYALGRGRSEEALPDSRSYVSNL

[2] = biological target: T2, Voltage-dependent L-type calcium channel subunit alpha-1C (Cavia porcellus, UniProt O35505); assay: (§1) Inhibition of Cav1.2 calcium current measured using whole cell patch clamp in guinea pig ventricular myocytes; format: functional, cell-based, Heart, Ventricular myocyte; design: ca sol conc 0.5 mM
T2 sequence (O35505 whole entry): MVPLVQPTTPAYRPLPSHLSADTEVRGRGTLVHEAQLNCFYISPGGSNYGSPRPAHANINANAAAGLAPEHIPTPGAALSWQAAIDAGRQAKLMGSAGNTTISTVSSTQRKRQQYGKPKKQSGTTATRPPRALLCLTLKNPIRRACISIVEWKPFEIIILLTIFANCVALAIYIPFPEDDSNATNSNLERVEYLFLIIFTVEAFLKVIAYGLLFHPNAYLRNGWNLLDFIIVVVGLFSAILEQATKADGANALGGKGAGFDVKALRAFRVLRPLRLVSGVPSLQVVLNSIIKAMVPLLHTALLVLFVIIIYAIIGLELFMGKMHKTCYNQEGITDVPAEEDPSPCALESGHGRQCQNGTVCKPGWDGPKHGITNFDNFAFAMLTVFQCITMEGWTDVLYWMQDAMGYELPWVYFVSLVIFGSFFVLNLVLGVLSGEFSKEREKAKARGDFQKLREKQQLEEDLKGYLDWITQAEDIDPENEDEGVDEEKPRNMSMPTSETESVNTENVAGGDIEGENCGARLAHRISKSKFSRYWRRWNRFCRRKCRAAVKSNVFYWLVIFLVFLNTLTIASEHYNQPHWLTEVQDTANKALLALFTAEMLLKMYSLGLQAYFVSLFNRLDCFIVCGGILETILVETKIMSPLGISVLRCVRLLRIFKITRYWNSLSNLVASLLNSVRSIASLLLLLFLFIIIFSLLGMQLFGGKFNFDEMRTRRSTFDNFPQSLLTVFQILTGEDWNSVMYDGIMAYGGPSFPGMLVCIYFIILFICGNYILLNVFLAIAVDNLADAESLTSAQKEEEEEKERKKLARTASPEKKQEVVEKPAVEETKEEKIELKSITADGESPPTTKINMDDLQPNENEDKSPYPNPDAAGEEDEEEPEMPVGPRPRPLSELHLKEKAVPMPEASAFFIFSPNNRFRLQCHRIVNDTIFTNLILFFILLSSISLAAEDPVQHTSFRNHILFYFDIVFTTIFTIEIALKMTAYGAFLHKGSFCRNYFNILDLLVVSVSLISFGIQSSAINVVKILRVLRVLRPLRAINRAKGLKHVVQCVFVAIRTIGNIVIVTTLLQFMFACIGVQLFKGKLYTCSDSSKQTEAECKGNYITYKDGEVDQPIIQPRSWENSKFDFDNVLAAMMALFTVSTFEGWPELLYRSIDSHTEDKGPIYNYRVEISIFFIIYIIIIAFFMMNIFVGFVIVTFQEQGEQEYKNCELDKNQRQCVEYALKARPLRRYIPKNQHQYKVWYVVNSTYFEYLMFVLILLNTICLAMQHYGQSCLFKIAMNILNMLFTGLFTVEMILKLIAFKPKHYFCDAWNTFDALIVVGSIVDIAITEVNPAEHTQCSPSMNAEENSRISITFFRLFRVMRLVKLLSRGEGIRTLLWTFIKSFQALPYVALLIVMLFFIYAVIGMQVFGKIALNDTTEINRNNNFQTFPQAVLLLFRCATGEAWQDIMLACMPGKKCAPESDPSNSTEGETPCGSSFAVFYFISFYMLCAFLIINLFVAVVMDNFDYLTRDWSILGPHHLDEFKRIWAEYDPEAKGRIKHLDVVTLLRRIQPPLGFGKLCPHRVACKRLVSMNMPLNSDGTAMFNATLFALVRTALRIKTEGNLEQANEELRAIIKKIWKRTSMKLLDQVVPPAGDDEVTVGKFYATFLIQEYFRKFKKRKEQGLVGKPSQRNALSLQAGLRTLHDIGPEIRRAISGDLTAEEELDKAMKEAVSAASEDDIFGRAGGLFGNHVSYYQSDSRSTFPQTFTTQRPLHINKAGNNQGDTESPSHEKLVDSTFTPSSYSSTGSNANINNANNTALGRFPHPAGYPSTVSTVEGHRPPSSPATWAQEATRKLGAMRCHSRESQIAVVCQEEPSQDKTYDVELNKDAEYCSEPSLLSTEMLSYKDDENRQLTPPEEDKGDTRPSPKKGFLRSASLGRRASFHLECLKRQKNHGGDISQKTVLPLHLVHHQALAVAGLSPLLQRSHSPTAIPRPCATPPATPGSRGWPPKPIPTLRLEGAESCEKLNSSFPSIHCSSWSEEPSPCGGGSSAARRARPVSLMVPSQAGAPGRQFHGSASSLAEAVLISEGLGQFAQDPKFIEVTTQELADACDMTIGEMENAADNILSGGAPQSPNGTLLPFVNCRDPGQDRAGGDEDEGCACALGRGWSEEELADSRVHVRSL

[3] = biological target: T2, Voltage-dependent L-type calcium channel subunit alpha-1C; assay: as §1; format: functional, cell-based, Heart, Ventricular myocyte; design: ca sol conc 1.8 mM, temp 25-27 C
[4] = biological target: T2, Voltage-dependent L-type calcium channel subunit alpha-1C; assay: as §1; format: functional, cell-based, Heart, Ventricular myocyte; design: ca sol conc 1.8 mM, temp 24-26 C
[5] = biological target: T3, Voltage-dependent L-type calcium channel subunit alpha-1C (Homo sapiens, UniProt Q13936); assay: Inhibition of Cav1.2 calcium current measured using Voltage-clamp 2-electrode in Xenopous Oocyte transfected with human L-type calcium channel; format: functional, cell-based, Xenopus; design: ca sol conc 4 - Ba(OH)2 mM, temp 20-22 C
[6] = biological target: T1, Voltage-dependent L-type calcium channel subunit alpha-1C; assay: (§2) Inhibition of Cav1.2 calcium current measured using FLIPR in rat aortic A7r5 cells; format: functional, cell-based
[7] = biological target: T1, Voltage-dependent L-type calcium channel subunit alpha-1C; assay: as §2; format: functional, cell-based; remark: listed apart in the source
[8] = biological target: T4, Voltage-dependent L-type calcium channel subunit alpha-1C (Oryctolagus cuniculus, UniProt P15381); assay: (§3) Inhibition of Cav1.2 calcium current measured using whole cell patch clamp in rabbit ventricular myocytes; format: functional, cell-based, Heart, Ventricular myocyte; design: ca sol conc 1.8 mM, temp 34 C
[9] = biological target: T5, Voltage-dependent L-type calcium channel subunit alpha-1C (Mus musculus, UniProt Q01815); assay: (§4) Inhibition of Cav1.2 calcium current measured using whole cell patch clamp in mouse ventricular myocytes; format: functional, cell-based, Heart, Ventricular myocyte; design: ca sol conc 1.8 mM, temp room
[10] = biological target: T2, Voltage-dependent L-type calcium channel subunit alpha-1C; assay: Inhibition of Cav1.2 calcium current measured using whole cell patch clamp in guinea pig tracheal smooth muscle cells; format: functional, tissue-based, Trachea; design: ca sol conc 5 - Barium mM, temp 35 C
[11] = biological target: T2, Voltage-dependent L-type calcium channel subunit alpha-1C; assay: as §1; format: functional, cell-based, Heart, Ventricular myocyte; design: ca sol conc 1.8 mM, temp room
[12] = biological target: T3, Voltage-dependent L-type calcium channel subunit alpha-1C; assay: Inhibition of Cav1.2 calcium current measured using whole cell patch clamp in human atrial myocytes; format: functional, cell-based, Heart, Cardiac Muscle Cell; design: ca sol conc 1.8 mM, temp 25 C
[13] = biological target: T1, Voltage-dependent L-type calcium channel subunit alpha-1C; assay: (§5) Inhibition of Cav1.2 calcium current measured using whole cell patch clamp in rat myocyte; format: functional, Heart, Cardiac Muscle Cell; design: ca sol conc 1.8 mM
[14] = biological target: T4, Voltage-dependent L-type calcium channel subunit alpha-1C; assay: as §3; format: functional, cell-based, Heart, Ventricular myocyte; design: ca sol conc 1 - BaCl2 mM, temp 37 C
[15] = biological target: T2, Voltage-dependent L-type calcium channel subunit alpha-1C; assay: as §1; format: functional, cell-based, Heart, Ventricular myocyte; design: ca sol conc 1.8 mM, temp 35-36 C
[16] = biological target: T1, Voltage-dependent L-type calcium channel subunit alpha-1C; assay: as §5; format: functional, Heart; design: ca sol conc 1.8 mM, temp 20-25 C; settings: cardiac muscle cell
[17] = biological target: T2, Voltage-dependent L-type calcium channel subunit alpha-1C; assay: Inhibition of Cav1.2 calcium current measured using whole cell patch clamp in guinea pig atrial myocytes; format: functional, cell-based, Heart, Cardiac Muscle Cell; design: ca sol conc 1.8 mM, temp 36 pm 1 C
[18] = biological target: T1, Voltage-dependent L-type calcium channel subunit alpha-1C; assay: (§6) Inhibition of Cav1.2 calcium current measured using whole cell patch clamp in rat ventricular myocytes; format: functional, cell-based, Heart, Ventricular myocyte; design: ca sol conc 1.8 mM, temp 25-27 C
[19] = biological target: T2, Voltage-dependent L-type calcium channel subunit alpha-1C; assay: as §1; format: functional, cell-based, Heart, Ventricular myocyte; design: ca sol conc 1.8 mM, temp 36 C
[20] = biological target: T1, Voltage-dependent L-type calcium channel subunit alpha-1C; assay: (§7) Inhibition of Cav1.2 calcium current measured using whole cell patch clamp in rat ventricular myocytess; format: functional, cell-based, Heart, Ventricular myocyte; design: ca sol conc 1.8 mM, temp 20-22 C
[21] = biological target: T1, Voltage-dependent L-type calcium channel subunit alpha-1C; assay: as §7; format: functional, cell-based, Heart, Ventricular myocyte; design: ca sol conc 2 mM, temp 22-24 C
[22] = biological target: T1, Voltage-dependent L-type calcium channel subunit alpha-1C; assay: as §5; format: functional, Heart, Cardiac Muscle Cell; design: ca sol conc 1.8 mM, temp 20-25 C
[23] = biological target: T2, Voltage-dependent L-type calcium channel subunit alpha-1C; assay: as §1; format: functional, cell-based, Heart, Ventricular myocyte; design: ca sol conc 1.8 mM, temp 35 pm 0.5 C
[24] = Inhibition of Cav1.2 calcium current measured using whole cell patch clamp in mouse/rat NG108-15; format: functional, cell-based; design: ca sol conc 1.8 mM, temp 20-25 C
[25] = biological target: T1, Voltage-dependent L-type calcium channel subunit alpha-1C; assay: Inhibition of Cav1.2 calcium current measured using whole cell patch clamp in rat Vascular smooth muscle cells; format: functional, cell-based; design: ca sol conc 0 (Barium used instead) mM, temp 22 C
[26] = biological target: T1, Voltage-dependent L-type calcium channel subunit alpha-1C; assay: as §5; format: functional, Heart, Cardiac Muscle Cell; design: ca sol conc 1.2 mM, temp 22 C
[27] = biological target: T2, Voltage-dependent L-type calcium channel subunit alpha-1C; assay: as §1; format: functional, cell-based, Heart, Ventricular myocyte; design: ca sol conc 5 mM, temp 20-22 C
[28] = biological target: T2, Voltage-dependent L-type calcium channel subunit alpha-1C; assay: as §1; format: functional, cell-based, Heart, Ventricular myocyte; design: ca sol conc 5 mM, temp 20-22 C; remark: listed apart in the source
[29] = biological target: T1, Voltage-dependent L-type calcium channel subunit alpha-1C; assay: as §6; format: functional, cell-based, Heart, Ventricular myocyte; design: ca sol conc 1.8 mM, temp 25 C
[30] = biological target: T1, Voltage-dependent L-type calcium channel subunit alpha-1C; assay: as §6; format: functional, cell-based, Heart, Ventricular myocyte; design: ca sol conc 1.8 mM, temp 22-26 C
[31] = biological target: T1, Voltage-dependent L-type calcium channel subunit alpha-1C; assay: as §6; format: functional, cell-based, Heart, Ventricular myocyte; design: ca sol conc 1 mM, temp 34 C
[32] = biological target: T5, Voltage-dependent L-type calcium channel subunit alpha-1C; assay: as §4; format: functional, cell-based, Heart, Ventricular myocyte; design: ca sol conc 2.5 mM, temp 22-24 C

## O=c1c(O)c(-c2ccc(O)cc2)oc2cc(O)ccc12 [RESOKAEMPFEROL]
[1]
  pIC50: 4.56

## COc1ccc2c(c1OC)C[N+]1(Cc3ccc(Cl)cc3)CCc3cc4c(cc3C1C2)OCO4 (stereo not drawn)
[2]
  pIC50: 4.94

## O=C(/C=C/c1ccc(O)c(O)c1)OCCc1ccccc1 [CAFFEIC ACID PHENETHYL ESTER]
[3]
  pIC50: 5.96

## CC(=O)N(CCOc1cccc2ccccc12)CCc1ccc(NS(C)(=O)=O)cc1
[4]
  pIC50: 6.04

## CCN(CC)CC(=O)N1C[C@@H](c2ccc(Cl)cc2)Sc2ccccc21
[5]
  pIC50: 4.28

## COc1cccc(CCN2CCC(CC(=O)N[C@@H](c3ccc(F)cc3)C(C)C)CC2)c1
[6]
  pIC50: 5.66
[7]
  pIC50: 5.15

## COCCOc1ccc(F)cc1CCN1CCC(CC(=O)N[C@@H](c2ccc(F)cc2)C(C)C)CC1
[6]
  pIC50: 5.51

## COc1ccccc1OCCNCC(O)COc1cccc2[nH]c3ccccc3c12 (stereo not drawn) [CARVEDILOL]
[8]
  pIC50: 5.44

## CCN1CCC(CC(NC(=O)c2ccc([N+](=O)[O-])cc2)c2ccc(F)cc2)CC1 (stereo not drawn)
[9]
  pIC50: 4.00

## CN1CCCC(n2nc(Cc3ccc(Cl)cc3)c3ccccc3c2=O)CC1 (stereo not drawn) [AZELASTINE]
[10]
  pIC50: 5.10

## N#Cc1cc2c(OCC(O)CN3CCN(C(c4ccccc4)c4ccccc4)CC3)cccc2[nH]1 (stereo not drawn)
[11]
  pIC50: 5.96

## CC(C)[C@@H](NC(=O)CC1CCN(CCc2ccccc2)CC1)c1ccc(F)cc1
[6]
  pIC50: 5.00

## CNC1(c2ccccc2Cl)CCCCC1=O (stereo not drawn) [KETAMINE]
[12]
  pIC50: 5.74

## CC(/N=C(\NC#N)Nc1ccc(OC(F)F)cc1)C(C)(C)C (stereo not drawn)
[13]
  pIC50: 4.62

## CC(C)[C@@H]1CC[C@@H](C)C[C@H]1O [LEVOMENTHOL]
[14]
  pIC50: 4.13

## COc1cc(C[C@H](C)[C@@H](C)C(=O)c2ccc(O)c(OC)c2)ccc1O
[3]
  pIC50: 5.12

## CCN(CC)CC#CC(C)(C)OC(=O)C(O)(c1ccccc1)C1CCCCC1 (stereo not drawn) [TEMIVERINE]
[15]
  pIC50: 4.57

## CCC(C)n1ncn(-c2ccc(N3CCN(c4ccc(OCC5COC(Cn6cncn6)(c6ccc(Cl)cc6Cl)O5)cc4)CC3)cc2)c1=O (stereo not drawn) [ITRACONAZOLE]
[16]
  IC50: inactive at 10uM. Original reference for datapoint is pubmed_id: 22975497

## CC(C)COCC(CN(Cc1ccccc1)c1ccccc1)N1CCCC1 (stereo not drawn) [BEPRIDIL]
[17]
  pIC50: 5.81

## COc1ccc2c(c1OC)[C@@H]1Cc3cc4c(cc3[C@H](C2)N1C)OCO4
[18]
  pIC50: 5.18

## OC(Cn1cncn1)(Cn1cncn1)c1ccc(F)cc1F [FLUCONAZOLE]
[16]
  IC50: inactive at 10uM. Original reference for datapoint is pubmed_id: 22975497

## COCCOc1cc(F)ccc1CCN1CCC(CC(=O)N[C@@H](c2ccc(F)cc2)C(C)C)CC1
[6]
  pIC50: 5.72

## COc1ccc(OCCCN(C)CCOc2ccc3c(c2)OCO3)c([C@@H]2Sc3ccccc3N(C)C2=O)c1 [LEVOSEMOTIADIL]
[17]
  pIC50: 5.89

## CCCCc1oc2ccc(NS(C)(=O)=O)cc2c1C(=O)c1ccc(OCCCN(CCCC)CCCC)cc1 [DRONEDARONE]
[19]
  pIC50: 6.40

## O=C1C=CC[C@H](C[C@@H](O)CCc2ccc(O)cc2)O1
[20]
  pIC50: 5.49

## CCCCC/C=C\C/C=C\C/C=C/C/C=C\CCCC(=O)NCCO
[21]
  pIC50: 7.00

## Clc1ccc(COC(Cn2ccnc2)c2ccc(Cl)cc2Cl)c(Cl)c1 (stereo not drawn) [MICONAZOLE]
[22]
  pIC50: 5.52

## O=c1cc(-c2ccccc2)oc2cc(O)c(O)c(O)c12 [BAICALEIN]
[1]
  pIC50: 4.07

## COCCOc1cccc(F)c1CCN1CCC(CC(=O)N[C@@H](c2ccc(F)cc2)C(C)C)CC1
[6]
  pIC50: 5.51

## Cc1c(C)c2c(c(C)c1O)CCC(C)(COc1ccc(CC3SC(=O)NC3=O)cc1)O2 (stereo not drawn) [TROGLITAZONE]
[23]
  pIC50: 6.10

## Cc1cc(O)c(C(C)C)cc1CN1CCCCC1
[24]
  pIC50: 5.44

## CCC1=C[C@@H]2CN3CCc4c([nH]c5ccccc45)[C@@](C(=O)OC)(C2)[C@@H]13 [CATHARANTHINE BASE]
[25]
  pIC50: 5.08
[26]
  pIC50: 3.65

## CCC(CC)(CNC(=O)C1CCN(CCc2ccccc2)CC1)c1ccc(F)cc1
[6]
  pIC50: 5.36

## CC1=C(C(=O)OC(C)C)[C@@H](c2cccc3nonc23)C([N+](=O)[O-])=C(C)N1
[27]
  pIC50: 9.00
[28]
  pIC50: 6.70

## O=C(O)c1ccccc1Nc1ccccc1 [FENAMIC ACID]
[29]
  pIC50: 3.33

## O=C1COc2c1c(=O)c1ccc(Br)cc1n2Cc1ccccc1F
[18]
  pIC50: 5.31

## O=c1cc(-c2ccccc2O)oc2cc(O)cc(O)c12
[1]
  pIC50: 4.35

## Oc1c(CN2CCCC2)cc(Nc2ncnc3ccccc23)cc1CN1CCCC1 [CHANGROLIN]
[30]
  pIC50: 4.13

## COC(=O)CCc1ccc(OCC(O)CNC(C)C)cc1 (stereo not drawn) [ESMOLOL]
[31]
  pIC50: 3.35

## CCC(C)(C)C(=O)O[C@H]1C[C@@H](C)C=C2C=C[C@H](C)[C@H](CC[C@@H](O)C[C@@H](O)CC(=O)O)[C@H]21 [TENIVASTATIN]
[32]
  pIC50: 5.41
